Measured values: US11612592B2, “Liquid formulations containing picosulfate and magnesium citrate” (FERRING B.V., priority 2015, dated 2023)
Entries after “also recorded” stand apart in the source; their conditions may differ.

What was measured:
[1] = Freeze-thaw cycle accelerated method for predicting precipitation (height of precipitate in tube); assay type: physicochemical; conditions: for Effectiveness to inhibit precipitation: 63 mmol in 150 mL (420 mM), five freeze-thaw cycles; for Effectiveness as precipitation inhibitor compared with malic acid: 31 mmol in 150 mL (210 mM)
Method: A picosulfate formulation containing sodium picosulfate (10 mg), magnesium oxide (3.5 g), citric acid (12 g), and KHCO3 (0.65 g) and, optionally, a precipitation inhibitor (or combination of inhibitors) to be tested, dissolved in water (150 mL) is prepared. The pH is adjusted to the range 4.7-5.1 using aq. NaOH and aq. HCl solutions. The solution is filtered through a 0.22 μm PTFE filter under vacuum.
Two portions of 10 mL of the formulation test solution are placed in tapered, graduated, centrifuge tubes (15 mL) and subjected to five freeze-thaw cycles in which the solutions are frozen at −20° C. for at least 12 h and then thawed at 20-25° C. for 8 h. At the end of each cycle, the tube is inspected for precipitation at the bottom of the tube. If precipitation is present, the amount of precipitate is quantitated by measuring the height (in mm) of the precipitate in the centrifuge tube using a ruler.
The amount of precipitate (if any) is quantitated by measuring the height (in mm) of the precipitate in the centrifuge tube using a ruler at the end of each freeze thaw cycle.
If a polymer is included in the formulation, the polymer (75-150 mg) is dissolved in water (150 mL) until a clear solution (containing the polymer at a concentration of […]) is formed. A sachet of PREPOPIK® sodium picosulfate/magnesium citrate granules (containing sodium picosulfate (10 mg), magnesium oxide (3.5 g), citric acid (12 g), KHCO3 (0.65 g), Na-saccharin and orange flavoring) is added. A carboxylic acid (31-63 mmol) is added, and the pH is adjusted to the range 4.7-5.1 using aq. NaOH and aq. HCl solutions. The solution is filtered through a 0.22 μm PTFE filter under vacuum.

[2] = Time to precipitation on storage under ambient conditions (20-25 °C); assay type: physicochemical; conditions: Table 3 data; 0.42 M
Method: A liquid formulation containing sodium picosulfate and magnesium citrate was prepared by dissolving a sachet of commercially available PREPOPIK® containing sodium picosulfate (10 mg), magnesium oxide (3.5 g), citric acid (12 g), KHCO3 (0.65 g), and orange or berry flavoring in water (150 mL). The solution is stored under ambient conditions and observed periodically until precipitation from the solution is noted.
A liquid formulation containing sodium picosulfate and magnesium citrate stabilized with malic acid was prepared using the ingredients listed in Table 1. The solution is stored under ambient conditions and observed periodically for precipitation from the solution. No precipitation is observed within 340 days.
As a reference, commercially available sodium picosulfate/magnesium oxide/citric acid (PICOSOLUTION™, Pharmbio Co., Ltd.) is also stored under ambient conditions and observed periodically for precipitation from the solution. No precipitation is observed within 645 days.
The remainder of the formulation test solution may be stored at ambient temperature (e.g., 20-25° C.) to determine the stability under non-accelerated conditions.
Samples of each of the solutions are also stored at ambient temperature (20-25° C.) and monitored for the appearance of precipitation. […]

O=C(O)CC(O)C(=O)O (stereo not drawn) [malic acid]
Effectiveness to inhibit precipitation [1]: very effective; also recorded: effective to inhibit precipitation
Concentration of malic acid needed for prolonged stability [2]: ≥ 63 mmol per 150 mL

O=C(O)CC(=O)O [malonic acid]
Effectiveness as precipitation inhibitor compared with malic acid [1]: more effective as a precipitation inhibitor than malic acid
Effectiveness to inhibit precipitation [1]: very effective; also recorded: effective to inhibit precipitation

O=C(O)C(O)C(O)C(=O)O (stereo not drawn) [tartaric acid]
Effectiveness as precipitation inhibitor compared with malic acid [1]: of comparable effectiveness
Effectiveness to inhibit precipitation [1]: very effective; also recorded: effective to inhibit precipitation
